Measured values from patent US8124784B2, “Palladium metal complex” (Nagasaki University, priority 2008, dated 2012).

Test: Solubility of the metal complex A in organic solvents
Type: physicochemical
Experimental: The solubility of the metal complex A in organic solvents was tested.

## [Pd2Au2Cl2(μ-dmpz)4(dmpzH)2] [metal complex A]
acetone
  solubility in organic solvent: insoluble
acetonitrile
  solubility in organic solvent: insoluble
benzene
  solubility in organic solvent: slightly soluble
chloroform
  solubility in organic solvent: soluble
Diethyl ether
  solubility in organic solvent: insoluble
ethanol
  solubility in organic solvent: insoluble
hexane
  solubility in organic solvent: insoluble
methanol
  solubility in organic solvent: insoluble
Methylene chloride
  solubility in organic solvent: soluble
toluene
  solubility in organic solvent: slightly soluble
